Where “and” joins values, the source holds several entries; their conditions need not be identical. Equal entries are not always repeated.
System: BDF1 mice, Adenocarcinoma 755 s.c., tumor weight T/C
Experiment: NCI In Vivo Anticancer Drug Screen. Data for tumor model Adenocarcinoma 755 (subcutaneous) in B6D2F1 (BDF1) mice
Details: endpoint: mean tumor weight, schedule: Q01DX011 (ip), higher = larger tumour
Procedure, shortened: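 Values express treated (T) relative to vehicle-dosed control (C) animals, based on survival or tumour size measured after compound treatment of mice bearing a transplanted tumour.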

[1] = dose: 75.0 mg/kg/injection, vehicle: methylcellulose (MC)
[2] = dose: 150.0 mg/kg/injection, vehicle: methylcellulose (MC)
[3] = dose: 25.0 mg/kg/injection, vehicle: methylcellulose (MC)
[4] = dose: 50.0 mg/kg/injection, vehicle: carboxymethylcellulose (CMC)
[5] = dose: 100.0 mg/kg/injection, vehicle: carboxymethylcellulose (CMC)
[6] = dose: 30.0 mg/kg/injection, vehicle: carboxymethylcellulose (CMC)
[7] = dose: 60.0 mg/kg/injection, vehicle: carboxymethylcellulose (CMC)
[8] = dose: 120.0 mg/kg/injection, vehicle: carboxymethylcellulose (CMC)
[9] = dose: 240.0 mg/kg/injection, vehicle: carboxymethylcellulose (CMC)
[10] = dose: 125.0 mg/kg/injection, vehicle: carboxymethylcellulose (CMC)
[11] = dose: 250.0 mg/kg/injection, vehicle: carboxymethylcellulose (CMC)

Question: For `c1nc(SCCSc2ncnc3nc[nH]c23)c2[nH]cnc2n1`, which T/C (dose: 4.6 mg/kg/injection, vehicle: methylcellulose (MC)) is on record?
Answer: Its T/C is 93 % of control.

Question: And the T/C (dose: 9.3 mg/kg/injection, vehicle: methylcellulose (MC))?
Answer: Its T/C is 86 % of control.

Question: What about the T/C (dose: 18.7 mg/kg/injection, vehicle: methylcellulose (MC)) of the same compound?
Answer: The T/C was 74 % of control.

Question: What about the T/C [1] of the same compound?
Answer: Its T/C is 1 % of control.

Question: And the T/C [2]?
Answer: The T/C was 2 % of control.

Question: `CCCn1cnc2c(SCC(=O)O)nc(N)nc21` was tested. Which T/C [3] did it give?
Answer: Its T/C is 58 % of control.

Question: And the T/C (dose: 50.0 mg/kg/injection, vehicle: methylcellulose (MC))?
Answer: The T/C was 37 % of control.

Question: What about the T/C (dose: 100.0 mg/kg/injection, vehicle: methylcellulose (MC)) of the same compound?
Answer: The T/C was 46 % of control.

Question: What about the T/C (dose: 200.0 mg/kg/injection, vehicle: methylcellulose (MC)) of the same compound?
Answer: The T/C was 36 % of control.

Question: With `NC(=O)NOC(=O)c1ccccc1` as the compound, how does the T/C (dose: 50.0 mg/kg/injection, vehicle: other) read?
Answer: The T/C was 57 % of control.

Question: And the T/C (dose: 50.0 mg/kg/injection, vehicle: saline)?
Answer: Its T/C is 86 % of control.

Question: And the T/C (dose: 100.0 mg/kg/injection, vehicle: other)?
Answer: Its T/C is 28 % of control.

Question: What about the T/C (dose: 100.0 mg/kg/injection, vehicle: saline) of the same compound?
Answer: Its T/C is 75 % of control.

Question: And the T/C (dose: 200.0 mg/kg/injection, vehicle: other)?
Answer: The T/C was 21 % of control.

Question: What about the T/C (dose: 200.0 mg/kg/injection, vehicle: saline) of the same compound?
Answer: Its T/C is 94 % of control.

Question: What about the T/C (dose: 400.0 mg/kg/injection, vehicle: saline) of the same compound?
Answer: The T/C was 92 % of control.

Question: What does the source list for `Nc1ncnc2c1ccn2C1OC(CO)C(O)C1O` (stereo not drawn)?
Answer: T/C (dose: 0.5 mg/kg/injection, vehicle: carboxymethylcellulose (CMC)): 68 % of control; T/C (dose: 1.0 mg/kg/injection, vehicle: carboxymethylcellulose (CMC)): 76 % of control

Question: What does the source list for `N/C(=N\O)c1nsnc1N`?
Answer: T/C [4]: 85 % of control; T/C [5]: 71 % of control

Question: For `O=c1[nH]c(Br)nc2nc[nH]c12`, which T/C [6] is on record?
Answer: Its T/C is 99 % of control.

Question: What about the T/C [7] of the same compound?
Answer: The T/C was 98 % of control.

Question: And the T/C [8]?
Answer: The T/C was 81 % of control.

Question: What about the T/C [9] of the same compound?
Answer: Its T/C is 92 % of control.

Question: Which T/C [6] does the source give for `CC(=O)OCC1OC(n2cnc3c(=O)[nH]c(N)nc32)CC1OC(C)=O` (stereo not drawn) here?
Answer: Its T/C is 115 % of control.

Question: And the T/C [7]?
Answer: The T/C was 95 % of control.

Question: And the T/C [8]?
Answer: The T/C was 94 % of control.

Question: And the T/C [9]?
Answer: Its T/C is 115 % of control.

Question: What does the source list for `Nc1nc(SCCc2ccccc2)c2[nH]cnc2n1`?
Answer: T/C (dose: 31.25 mg/kg/injection, vehicle: carboxymethylcellulose (CMC)): 106 % of control; T/C [4]: 97 % of control; T/C (dose: 62.5 mg/kg/injection, vehicle: carboxymethylcellulose (CMC)): 52 % of control; T/C [5]: 81 % of control; T/C [10]: 19 % of control; T/C (dose: 200.0 mg/kg/injection, vehicle: carboxymethylcellulose (CMC)): 74 % of control; T/C [11]: 6 % of control; T/C (dose: 400.0 mg/kg/injection, vehicle: carboxymethylcellulose (CMC)): 75 % of control; T/C (dose: 800.0 mg/kg/injection, vehicle: carboxymethylcellulose (CMC)): 22 % of control

Question: `O=[N+]([O-])c1ccc(O)c([N+](=O)[O-])c1` was tested. Which T/C (dose: 3.35 mg/kg/injection, vehicle: carboxymethylcellulose (CMC)) did it give?
Answer: The T/C was 60 % of control.

Question: And the T/C (dose: 3.92 mg/kg/injection, vehicle: carboxymethylcellulose (CMC))?
Answer: The T/C was 57 % of control.

Question: What about the T/C (dose: 6.7 mg/kg/injection, vehicle: carboxymethylcellulose (CMC)) of the same compound?
Answer: The T/C was 92 % of control.

Question: What about the T/C (dose: 7.85 mg/kg/injection, vehicle: carboxymethylcellulose (CMC)) of the same compound?
Answer: Its T/C is 54 % of control.

Question: What about the T/C (dose: 13.4 mg/kg/injection, vehicle: carboxymethylcellulose (CMC)) of the same compound?
Answer: Its T/C is 64 % of control.

Question: And the T/C (dose: 15.7 mg/kg/injection, vehicle: carboxymethylcellulose (CMC))?
Answer: The T/C was 53 % of control.

Question: What about the T/C (dose: 26.8 mg/kg/injection, vehicle: carboxymethylcellulose (CMC)) of the same compound?
Answer: Its T/C is 91 % of control.

Question: And the T/C (dose: 31.4 mg/kg/injection, vehicle: carboxymethylcellulose (CMC))?
Answer: The T/C was 78 % of control.

Question: `CNC(=O)C(C)C` was tested. Which T/C (dose: 31.2 mg/kg/injection, vehicle: other) did it give?
Answer: Its T/C is 44 % of control.

Question: What about the T/C (dose: 62.5 mg/kg/injection, vehicle: other) of the same compound?
Answer: The T/C was 90 % of control.

Question: What about the T/C (dose: 125.0 mg/kg/injection, vehicle: other) of the same compound?
Answer: Its T/C is 90 % of control.

Question: What about the T/C (dose: 250.0 mg/kg/injection, vehicle: other) of the same compound?
Answer: The T/C was 77 % of control.

Question: What does the source list for `Cc1ccc(CSc2ncnc3nc[nH]c23)cc1C`?
Answer: T/C (dose: 18.75 mg/kg/injection, vehicle: methylcellulose (MC)): 48 % of control; T/C (dose: 37.5 mg/kg/injection, vehicle: methylcellulose (MC)): 41 % of control; T/C [1]: 32 % of control; T/C [2]: 7 % of control

Question: `Nc1nc(SCc2ccccc2F)c2ncn(C3OC(CO)C(O)C3O)c2n1` (stereo not drawn) was tested. Which T/C (dose: 1.5 mg/kg/injection, vehicle: methylcellulose (MC)) did it give?
Answer: Its T/C is 106 % of control.

Question: And the T/C (dose: 3.1 mg/kg/injection, vehicle: methylcellulose (MC))?
Answer: The T/C was 41 % of control.

Question: What about the T/C (dose: 6.2 mg/kg/injection, vehicle: methylcellulose (MC)) of the same compound?
Answer: The T/C was 7 % of control and 14 % of control.

Question: What about the T/C (dose: 12.5 mg/kg/injection, vehicle: methylcellulose (MC)) of the same compound?
Answer: Its T/C is 1 % of control.

Question: What about the T/C [3] of the same compound?
Answer: The T/C was 5 % of control.

Question: Which results are given for `O=C(OCC1OC(n2cnc3c(=S)nc[nH]c32)C(OC(=O)c2ccccc2)C1OC(=O)c1ccccc1)c1ccccc1` (stereo not drawn)?
Answer: T/C (dose: 8.0 mg/kg/injection, vehicle: carboxymethylcellulose (CMC)): 98 % of control; T/C (dose: 15.0 mg/kg/injection, vehicle: carboxymethylcellulose (CMC)): 91 % of control; T/C (dose: 31.0 mg/kg/injection, vehicle: carboxymethylcellulose (CMC)): 99 % of control; T/C (dose: 32.0 mg/kg/injection, vehicle: carboxymethylcellulose (CMC)): 53 % of control; T/C [4]: 53 % of control; T/C [5]: 7 % of control; T/C [10]: 2 % of control and 6 % of control and 12 % of control; T/C [11]: 1 % of control

Question: With `Cc1cccc(CSc2nc(N)nc3nc[nH]c23)n1` as the compound, how does the T/C (dose: 3.9 mg/kg/injection, vehicle: methylcellulose (MC)) read?
Answer: Its T/C is 17 % of control.

Question: What about the T/C (dose: 7.8 mg/kg/injection, vehicle: methylcellulose (MC)) of the same compound?
Answer: Its T/C is 20 % of control.

Question: What about the T/C (dose: 15.6 mg/kg/injection, vehicle: methylcellulose (MC)) of the same compound?
Answer: Its T/C is 5 % of control.

Question: And the T/C (dose: 31.25 mg/kg/injection, vehicle: methylcellulose (MC))?
Answer: Its T/C is 1 % of control.

Question: Which results are given for `NS(=O)(=O)c1nc(=S)c2[nH]cnc2[nH]1`?
Answer: T/C (dose: 25.0 mg/kg/injection, vehicle: carboxymethylcellulose (CMC)): 108 % of control; T/C (dose: 75.0 mg/kg/injection, vehicle: carboxymethylcellulose (CMC)): 117 % of control; T/C (dose: 225.0 mg/kg/injection, vehicle: carboxymethylcellulose (CMC)): 79 % of control

— PubChem BioAssay AID180 (DTP/NCI, 2004)
